Experimental data as given in US10792249B2, “High drug loading pharmaceutical compositions” (AcrysPharm LLC, priority 2017, dated 2020).

Test: Preliminary screening of ibuprofen solubility in HPMC
Format: physicochemical
Conditions: 0.5 part ibuprofen in 1 part HPMC w/w
Excerpt: As listed in Table 4, […] process, which is a common procedure to generate glass-solution solid dispersion (Newman, ‘Pharmaceutical Amorphous Solid Dispersions’, Wiley (2015)). […] Therefore, these dispersions exceed the solubility limit of ibuprofen in HPMC.

- solubility of ibuprofen in HPMC: about 50 wt % of HPMC
SMILES: CC(C)Cc1ccc(C(C)C(=O)O)cc1 (racemic) [ibuprofen]
